Assay results as given in patent US9637496B2, “Substituted 7-azabicycles and their use as orexin receptor modulators” (priority 2013, dated 2017).
Where two headings read alike, the source gives them in different places.

What was measured:
[1] = molecular target: human orexin 1 receptor (Homo sapiens (Human), UniProt O43613); experiment: Human orexin 1 receptor radioligand binding (competitive binding, CHO membranes); settings: read-out: hOX1 Ki
[2] = molecular target: human orexin 2 receptor (Homo sapiens (Human), UniProt O43614); experiment: Human orexin 2 receptor radioligand binding ([3H]-EMPA competition, HEK293 membranes); settings: Table 2, further testing; averages from 2-20 runs; read-out: hOX2 Ki
[3] = molecular target: rat orexin 1 receptor (Rattus norvegicus (Rat), UniProt P56718); experiment: Rat orexin 1 receptor radioligand binding (competitive binding, HEK293 membranes); settings: read-out: rOX1 Ki
[4] = Table 2, further testing, averages from 2-20 runs

Chain of human orexin 1 receptor (O43613 whole entry): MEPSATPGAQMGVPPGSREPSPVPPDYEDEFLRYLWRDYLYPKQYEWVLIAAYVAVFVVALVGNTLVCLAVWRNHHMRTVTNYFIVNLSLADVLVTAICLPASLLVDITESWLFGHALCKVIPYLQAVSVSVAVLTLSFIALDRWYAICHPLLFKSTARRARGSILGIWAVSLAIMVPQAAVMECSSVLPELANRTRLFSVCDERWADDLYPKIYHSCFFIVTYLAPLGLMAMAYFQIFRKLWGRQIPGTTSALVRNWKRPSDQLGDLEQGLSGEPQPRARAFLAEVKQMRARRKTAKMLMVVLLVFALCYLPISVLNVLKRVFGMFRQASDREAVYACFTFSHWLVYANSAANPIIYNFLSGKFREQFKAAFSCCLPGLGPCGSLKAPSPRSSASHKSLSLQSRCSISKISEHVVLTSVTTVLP
Chain of rat orexin 1 receptor (P56718 whole entry): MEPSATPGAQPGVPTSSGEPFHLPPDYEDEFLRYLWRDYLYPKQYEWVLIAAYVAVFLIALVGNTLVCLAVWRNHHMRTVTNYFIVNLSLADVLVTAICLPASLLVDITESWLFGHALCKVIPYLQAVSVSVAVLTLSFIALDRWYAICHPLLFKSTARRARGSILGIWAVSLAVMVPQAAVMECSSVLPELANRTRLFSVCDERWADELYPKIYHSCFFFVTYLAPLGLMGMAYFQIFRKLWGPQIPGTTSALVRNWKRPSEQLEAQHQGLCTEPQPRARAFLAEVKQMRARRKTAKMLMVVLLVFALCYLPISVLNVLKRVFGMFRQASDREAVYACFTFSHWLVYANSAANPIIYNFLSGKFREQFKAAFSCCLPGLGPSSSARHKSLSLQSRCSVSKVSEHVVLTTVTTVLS
Chain of human orexin 2 receptor (O43614 whole entry): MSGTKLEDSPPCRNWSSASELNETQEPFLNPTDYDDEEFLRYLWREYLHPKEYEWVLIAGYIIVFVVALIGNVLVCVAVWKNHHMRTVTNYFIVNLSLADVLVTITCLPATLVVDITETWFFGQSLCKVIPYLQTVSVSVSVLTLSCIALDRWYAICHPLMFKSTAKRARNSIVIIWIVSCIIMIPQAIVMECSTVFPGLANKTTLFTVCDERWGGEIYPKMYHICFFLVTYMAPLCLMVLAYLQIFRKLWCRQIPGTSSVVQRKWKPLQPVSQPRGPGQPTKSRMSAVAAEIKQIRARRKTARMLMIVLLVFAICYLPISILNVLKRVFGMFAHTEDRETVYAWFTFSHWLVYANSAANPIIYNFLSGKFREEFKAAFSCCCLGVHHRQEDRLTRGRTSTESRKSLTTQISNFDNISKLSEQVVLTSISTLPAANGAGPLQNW

Cc1cnc(-n2nccn2)c(C(=O)N2[C@@H]3CC[C@H]2[C@H](Nc2ncc(C(F)(F)F)cc2F)C3)c1 [Example 453, ((1S,2R,4R)-2-((3-fluoro-5-(trifluoromethyl)pyridin-2-yl)amino)-7-azabicyclo[2.2.1]heptan-7-yl)(5-methyl-2-(2H-1,2,3-triazol-2-yl)pyridin-3-yl)methanone]
Ki [1, 4]: 305 nM | Ki [2]: > 10000 nM | Ki [3, 4]: 210 nM

O=C(c1cccc(F)c1-c1ncco1)N1[C@@H]2CC[C@H]1[C@H](Nc1ncc(C(F)(F)F)cc1F)C2 [Example 454, (3-fluoro-2-(oxazol-2-yl)phenyl)((1S,2R,4R)-2-((3-fluoro-5-(trifluoromethyl)pyridin-2-yl)amino)-7-azabicyclo[2.2.1]heptan-7-yl)methanone]
Ki [1, 4]: 23 nM | Ki [2]: 590 nM | Ki [3, 4]: 18 nM

Cc1ccc(-c2ncccn2)c(C(=O)N2[C@@H]3CC[C@H]2[C@H](Nc2ncc(C(F)(F)F)cc2F)C3)n1 [Example 456, ((1S,2R,4R)-2-((3-fluoro-5-(trifluoromethyl)pyridin-2-yl)amino)-7-azabicyclo[2.2.1]heptan-7-yl)(6-methyl-3-(pyrimidin-2-yl)pyridin-2-yl)methanone]
Ki [1]: 48 nM | Ki [2]: 454 nM | Ki [3]: 68 nM

Cc1cnc(C(=O)N2[C@@H]3CC[C@H]2[C@H](Nc2ncc(C(F)(F)F)cc2F)C3)c(-c2ncccn2)c1 [Example 457, ((1S,2R,4R)-2-((3-fluoro-5-(trifluoromethyl)pyridin-2-yl)amino)-7-azabicyclo[2.2.1]heptan-7-yl)(5-methyl-3-(pyrimidin-2-yl)pyridin-2-yl)methanone]
Ki [1, 4]: 98 nM | Ki [2]: 9100 nM | Ki [3, 4]: 55 nM

O=C(c1ncccc1-c1ncccn1)N1[C@@H]2CC[C@H]1[C@H](Nc1ncc(C(F)(F)F)cc1F)C2 [Example 458, ((1S,2R,4R)-2-((3-fluoro-5-(trifluoromethyl)pyridin-2-yl)amino)-7-azabicyclo[2.2.1]heptan-7-yl)(3-(pyrimidin-2-yl)pyridin-2-yl)methanone]
Ki [1, 4]: 45 nM | Ki [2]: 932 nM | Ki [3, 4]: 46 nM

O=C(c1c(F)cccc1-c1ncccn1)N1[C@@H]2CC[C@H]1[C@H](Nc1ncc(C(F)(F)F)cc1F)C2 [Example 459, ((1S,2R,4R)-2-((3-fluoro-5-(trifluoromethyl)pyridin-2-yl)amino)-7-azabicyclo[2.2.1]heptan-7-yl)(2-fluoro-6-(pyrimidin-2-yl)phenyl)methanone]
Ki [1, 4]: 71 nM | Ki [2]: 530 nM | Ki [3, 4]: 26 nM

O=C(c1ccccc1-c1ncc(F)cn1)N1[C@@H]2CC[C@H]1[C@H](Nc1ncc(C(F)(F)F)cc1F)C2 [Example 460, ((1S,2R,4R)-2-((3-fluoro-5-(trifluoromethyl)pyridin-2-yl)amino)-7-azabicyclo[2.2.1]heptan-7-yl)(2-(5-fluoropyrimidin-2-yl)phenyl)methanone]
Ki [1, 4]: 41 nM | Ki [2]: 1300 nM | Ki [3, 4]: 57 nM

O=C(c1ccccc1-c1ncccn1)N1[C@@H]2CC[C@H]1[C@H](Nc1ncc(C(F)(F)F)cc1F)C2 [Example 461, ((1S,2R,4R)-2-((3-fluoro-5-(trifluoromethyl)pyridin-2-yl)amino)-7-azabicyclo[2.2.1]heptan-7-yl)(2-(pyrimidin-2-yl)phenyl)methanone]
Ki [1, 4]: 24 nM | Ki [2]: 760 nM | Ki [3, 4]: 30 nM

Cc1cccc(C(=O)N2[C@@H]3CC[C@H]2[C@H](Nc2ncc(C(F)(F)F)cc2F)C3)c1-c1ncccn1 [Example 462, ((1S,2R,4R)-2-((3-fluoro-5-(trifluoromethyl)pyridin-2-yl)amino)-7-azabicyclo[2.2.1]heptan-7-yl)(3-methyl-2-(pyrimidin-2-yl)phenyl)methanone]
Ki [1, 4]: 31 nM | Ki [2]: 339 nM | Ki [3, 4]: 18 nM

O=C(c1cccc(F)c1-c1ncc(F)cn1)N1[C@@H]2CC[C@H]1[C@H](Nc1ncc(C(F)(F)F)cc1F)C2 [Example 463, (3-fluoro-2-(5-fluoropyrimidin-2-yl)phenyl)((1S,2R,4R)-2-((3-fluoro-5-(trifluoromethyl)pyridin-2-yl)amino)-7-azabicyclo[2.2.1]heptan-7-yl)methanone]
Ki [1]: 50 nM | Ki [2]: 1900 nM | Ki [3]: 53 nM
